The source of these data is US10703756B2, “Pyrrolo[2,3-D]pyrimidinyl, pyrrolo[2,3-B]pyrazinyl, pyrrolo[2,3-B]pyridinyl acrylamides and epoxides thereof” (Pfizer Inc., priority 2015, dated 2020).

The subject of data set [1] is IL-15 induced STAT5 phosphorylation in human whole blood lymphocytes. The data set can be described thus: HWB IL-15 Induced STAT5 Phosphorylation Assay. The data set is classed as cell-based. The conditions noted are these: Lymphocyte, IL-15 final 50 ng/ml, read-out: HWB_IL15 pSTAT5 IC50. The procedure, abridged: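 Heparinised human whole blood preincubated with compound (0.2% DMSO final) 45 min at 37° C, then stimulated with human IL-15 (50 ng/ml final) for 15 min. After lyse/fix and Perm Buffer III permeabilisation, stained overnight at 4° C with AlexaFluor647 anti-phospho-STAT5; read by flow cytometry gated on total lymphocytes.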

The test system of data set [2] is IL-15 induced P-STAT5 in human PBMC. The data set can be described thus: PBMC IL-15 Induced P-STAT5. The class given is cell-based. The conditions noted are these: human PBMC, IL-15 final 41 ng/mL; read-out: PBMC IL15_pSTAT5_IC50. The procedure, abridged:
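Thawed human PBMC, rested in human plasma, were preincubated 15 min at 37 °C with compound (0.2% DMSO), then stimulated 15 min with IL-15 at 41 ng/mL final. After paraformaldehyde fixation and methanol permeabilisation, Alexa Fluor 647 anti-STAT5 staining overnight at 4 °C was analysed by flow cytometry on total lymphocytes.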

Data set [3] in a line: Stability of JAK3 Covalent Inhibitors in Human Whole Blood. The data set is classed as in vitro ADME. The conditions noted are these: both sexes, 1 μM test compound, 37° C., 180 min incubation, read-out: Human blood stability t1/2. In a few lines: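 Compound at 1 μM final incubated in duplicate at 37° C for 180 min in fresh K2-EDTA whole blood […]. Samples quenched in acetonitrile with internal standard; LC-MS/MS peak area ratios gave % parent remaining over time.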

Molecules are shown by their SMILES.

Consider `C=CC(=O)N1C[C@H](Nc2ncnc3[nH]ccc23)CC[C@@H]1CNC(C)=O` (racemic) [Example 88, rac-N-(((2R,5R)-5-((7H-pyrrolo[2,3-d]pyrimidin-4-yl)amino)-1-acryloylpiperidin-2-yl)methyl)acetamide], for which the IC50 in data set [1] amounted to 5050 nM; in data set [2], 3450 nM. In addition, the half-life at 1 μM in data set [3] was > 6 h.
In the same order, the values of `C=CC(=O)N1CCC(Oc2cnc3[nH]cc(C(=O)NC(C)(C)CC)c3n2)CC1` [Example 209, 2-[(1-acryloylpiperidin-4-yl)oxy]-N-(2-methylbutan-2-yl)-5H-pyrrolo[2,3-b]pyrazine-7-carboxamide] are > 10000 nM, 206 nM and 4.45 h.
For `C=CC(=O)N1CC[C@H](Nc2cnc3[nH]cc(C(=O)NCC)c3n2)C[C@H]1C` (single isomer, unassigned) [Example 41] the same measures were 515 nM, 147 nM and 3.75 h.
For `C=CC(=O)N(C)C1CN(c2cnc3[nH]cc(C(=O)N[C@H](C)COC)c3n2)C1` [Example 86, 2-{3-[acryloyl(methyl)amino]azetidin-1-yl}-N-[(2R)-1-methoxypropan-2-yl]-5H-pyrrolo[2,3-b]pyrazine-7-carboxamide] the same measures were 2920 nM, 260 nM and 1.67 h.
Take `C=CC(=O)N1CCC(Nc2cnc3[nH]cc(C(=O)NCc4cccc(F)c4)c3n2)CC1` [Example 176, 2-[(1-acryloylpiperidin-4-yl)amino]-N-(3-fluorobenzyl)-5H-pyrrolo[2,3-b]pyrazine-7-carboxamide]: the IC50 amounted to 318 nM in data set [1] and 24 nM in data set [2]. The half-life at 1 μM in data set [3] stood at 4.85 h.
For the compound `C=CC(=O)N1CCN(c2cnc3[nH]cc(C(=O)NCC(C)C)c3n2)C[C@@H]1CC(C)C` [Example 288, 2-[(3S)-4-acryloyl-3-(2-methylpropyl)piperazin-1-yl]-N-(2-methylpropyl)-5H-pyrrolo[2,3-b]pyrazine-7-carboxamide], the values for the IC50 in data set [1] and in data set [2] were 2160 nM and 151 nM, respectively. Moreover, the half-life at 1 μM in data set [3] is > 6 h.
For `C=CC(=O)N1CCC(Oc2cnc3[nH]cc(C(=O)N[C@@H]4CCC[C@H]4F)c3n2)CC1` [Example 229, 2-[(1-acryloylpiperidin-4-yl)oxy]-N-[(1R,2R)-2-fluorocyclopentyl]-5H-pyrrolo[2,3-b]pyrazine-7-carboxamide] the same measures were 2390 nM, 221 nM and 5.93 h.
Regarding `C=CC(=O)N1CCC(Oc2cnc3[nH]cc(C(=O)NC45CC(C4)C5)c3n2)CC1` [Example 200, 2-[(1-acryloylpiperidin-4-yl)oxy]-N-(bicyclo[1.1.1]pent-1-yl)-5H-pyrrolo[2,3-b]pyrazine-7-carboxamide], the IC50 in data set [1] came to 1520 nM; in data set [2] it was 149 nM. In data set [3], the half-life at 1 μM is > 6 h.
Regarding `C=CC(=O)N1C[C@H](CN2CC[C@H](C#N)C2)C[C@H](Nc2ncnc3[nH]ccc23)C1` [Example 108, (S)-1-(((3S,5S)-5-((7H-pyrrolo[2,3-d]pyrimidin-4-yl)amino)-1-acryloylpiperidin-3-yl)methyl)pyrrolidine-3-carbonitrile], the IC50 in data set [1] came out at 3480 nM; in data set [2], 3260 nM. In data set [3], the half-life at 1 μM turned out to be 2.23 h.
Turning to `C=CC(=O)N1CCC(Nc2cnc3[nH]cc(C(=O)NCc4ccccc4)c3n2)CC1` [Example 187, 2-[(1-acryloylpiperidin-4-yl)amino]-N-benzyl-5H-pyrrolo[2,3-b]pyrazine-7-carboxamide], the IC50 in data set [1] turned out to be 240 nM; in data set [2], 54.7 nM. Besides, the half-life at 1 μM in data set [3] was > 6 h.
For `C=CC(=O)N1C[C@@H](CC#N)C[C@@H](Nc2ncnc3[nH]ccc23)C1` (single isomer, unassigned) [Example 106] the same measures were 287 nM, 192 nM and 1.87 h.
Take `C=CC(=O)N1CC[C@H](Nc2cnc3[nH]cc(C(=O)NCC)c3n2)[C@H](OC)C1` [Example 326, 2-{[(3R,4S)-1-acryloyl-3-methoxypiperidin-4-yl]amino}-N-ethyl-5H-pyrrolo[2,3-b]pyrazine-7-carboxamide]: the values for the IC50 in data set [1] and in data set [2] were 780 nM and 330 nM, respectively. Moreover, in data set [3], the half-life at 1 μM was > 6 h.
For `C=CC(=O)N1CCC(Oc2cnc3[nH]cc(C(=O)N[C@@H]4CCC[C@@H]4F)c3n2)CC1` [Example 230, 2-[(1-acryloylpiperidin-4-yl)oxy]-N-[(1R,2S)-2-fluorocyclopentyl]-5H-pyrrolo[2,3-b]pyrazine-7-carboxamide] the same measures were 1710 nM, 155 nM and 5.85 h.
In the same order, the values of `C=CC(=O)N1CC[C@@H](Nc2cnc3[nH]cc(C(=O)NCC)c3n2)[C@H](C)C1` (single isomer, unassigned) [Example 44] are 1230 nM, 315 nM and 4.27 h.
Regarding `C=CC(=O)N1C[C@@H](CF)C[C@@H](Nc2ncnc3[nH]ccc23)C1` (single isomer, unassigned) [Example 103], the results for the IC50 in data set [1] and in data set [2] were 659 nM and 155 nM, respectively. Also, the half-life at 1 μM in data set [3] stood at 2.28 h.
On to `C=CC(=O)N1CCC(Nc2cnc3[nH]cc(C(=O)NCc4ccc(F)cc4)c3n2)CC1` [Example 188, 2-[(1-acryloylpiperidin-4-yl)amino]-N-(4-fluorobenzyl)-5H-pyrrolo[2,3-b]pyrazine-7-carboxamide], for which the IC50 in data set [1] amounted to 913 nM; in data set [2], 88 nM. Further, the half-life at 1 μM in data set [3] is > 6 h.
For `C=CC(=O)N1CC[C@H](Nc2cnc3[nH]cc(C(=O)NCCCC(F)(F)F)c3n2)[C@H](OC)C1` [Example 319, 2-{[(3R,4S)-1-acryloyl-3-methoxypiperidin-4-yl]amino}-N-(4,4,4-trifluorobutyl)-5H-pyrrolo[2,3-b]pyrazine-7-carboxamide] the same measures were 396 nM, 211 nM and 5.57 h.
In the same order, the values of `C=CC(=O)N1CCN(c2cnc3[nH]cc(C(=O)N[C@H](CC)CC#N)c3n2)C[C@@H]1CC(C)C` [Example 314, 2-[(3S)-4-acryloyl-3-(2-methylpropyl)piperazin-1-yl]-N-[(2R)-1-cyanobutan-2-yl]-5H-pyrrolo[2,3-b]pyrazine-7-carboxamide] are 402 nM, 115 nM and 3.12 h.
Take `C=CC(=O)N1CC[C@H](Nc2cnc3[nH]cc(C(=O)NCC(C)CC(F)(F)F)c3n2)[C@H](OC)C1` (mixture of isomers) [Example 328, Racemic-2-{[(3R,4S)-1-acryloyl-3-methoxypiperidin-4-yl]amino}-N-(4,4,4-trifluoro-2-methylbutyl)-5H-pyrrolo[2,3-b]pyrazine-7-carboxamide]: the IC50 in data set [1] was found to be 287 nM; in data set [2] it was 143 nM. Further, the half-life at 1 μM in data set [3] came out at 4.2 h.
For `C=CC(=O)N1CC[C@@H](Nc2cnc3[nH]cc(C(=O)NCC(C)(F)F)c3n2)[C@@H](OC)C1` [Example 321, 2-{[(3S,4R)-1-acryloyl-3-methoxypiperidin-4-yl]amino}-N-(2,2-difluoropropyl)-5H-pyrrolo[2,3-b]pyrazine-7-carboxamide] the same measures were 999 nM, 310 nM and > 6 h.
For `C=CC(=O)N1CCN(c2cnc3[nH]cc(C(=O)N[C@H](C)COC)c3n2)CC1` [Example 332] the same measures were 221 nM, 87.7 nM and 2.42 h.
In the same order, the values of `C=CC(=O)N1CC[C@@H](Oc2cnc3[nH]cc(C(=O)NCC)c3n2)C[C@@H]1C` (racemic) [Example 77, Trans-racemic-2-{[1-acryloyl-2-methylpiperidin-4-yl]oxy}-N-ethyl-5H-pyrrolo[2,3-b]pyrazine-7-carboxamide] are 2450 nM, 561 nM and > 5.34 h.
Turning to `C=CC(=O)N1CCC(Oc2cnc3[nH]cc(C(=O)N[C@H](C)CC)c3n2)CC1` [Example 227, 2-[(1-acryloylpiperidin-4-yl)oxy]-N-[(2R)-butan-2-yl]-5H-pyrrolo[2,3-b]pyrazine-7-carboxamide], the IC50 in data set [1] is 682 nM; in data set [2], 146 nM. Moreover, the half-life at 1 μM in data set [3] came to 4.5 h.
Turning to `C=CC(=O)N1CCC(Oc2cnc3[nH]cc(C(=O)N[C@H](C)COC)c3n2)CC1` [Example 214, 2-[(1-acryloylpiperidin-4-yl)oxy]-N-[(2R)-1-methoxypropan-2-yl]-5H-pyrrolo[2,3-b]pyrazine-7-carboxamide], the IC50 in data set [1] was determined as 195 nM; in data set [2] it was 56.9 nM. Further, the half-life at 1 μM in data set [3] was determined as 4.79 h.
In the same order, the values of `C=CC(=O)N1CCC(Oc2cnc3[nH]cc(C(=O)NC4CCCC4)c3n2)CC1` (racemic) [Example 204, Racemic-2-[(1-acryloylpiperidin-4-yl)oxy]-N-cyclopentyl-5H-pyrrolo[2,3-b]pyrazine-7-carboxamide] are 1390 nM, 130 nM and > 6 h.
In the same order, the values of `C=CC(=O)N1CCC[C@H](Nc2cnc3[nH]cc(C(=O)NCC)c3n2)C1` (single isomer, unassigned) [Example 36] are 1090 nM, 176 nM and > 6 h.
